Data on 22 compounds can be found in patent publication US12344603B2 (Genentech, Inc., priority 2020, dated 2025).

Counter-ions that a name gives are not always drawn.

Chain of IRE1α (O75460 547-977 D688N): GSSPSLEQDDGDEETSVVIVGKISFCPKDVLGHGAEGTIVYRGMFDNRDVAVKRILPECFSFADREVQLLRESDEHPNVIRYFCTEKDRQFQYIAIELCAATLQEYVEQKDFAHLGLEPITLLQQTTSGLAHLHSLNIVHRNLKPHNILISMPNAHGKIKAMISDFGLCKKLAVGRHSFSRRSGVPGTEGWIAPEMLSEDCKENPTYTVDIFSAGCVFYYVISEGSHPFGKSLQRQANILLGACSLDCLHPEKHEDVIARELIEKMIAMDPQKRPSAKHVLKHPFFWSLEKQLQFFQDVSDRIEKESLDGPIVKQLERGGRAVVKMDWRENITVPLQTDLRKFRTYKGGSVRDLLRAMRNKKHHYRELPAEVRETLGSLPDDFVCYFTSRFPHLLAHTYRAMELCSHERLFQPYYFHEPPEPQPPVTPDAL

The target of this assay is IRE1α (Homo sapiens (Human), UniProt O75460, D688N). Nature of the assay: IRE1α TR-FRET competition binding assay (IRE1α HTRF). The note with it: TR-FRET competition binding to kinase domain of IRE1α. The gist of the method:
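Competition of compounds against an Alexa fluor 647 ATP-site probe (2 nM final) for the His-tagged kinase domain (0.25 nM final), detected via 2 nM Eu anti-His antibody by TR-FRET, 665 and 615 nm emission. Protein–antibody premix 1 h, 4° C; reaction 1 h, room temperature, pH 7.5 HEPES buffer.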
(In TR-FRET formats the signal depends on donor and acceptor labels being close together.)
The term IC50 denotes the concentration that gives 50% inhibition. High values mean a need for much substance, low ones inhibition by little substance. For `CC(C)n1c(=O)c(-c2ccc(NS(=O)(=O)CCC(F)(F)F)c(F)c2)cc2cnc(N[C@H]3CCC[C@H](N(C)C)C3)nc21` [Compound 104, hydrochloride], the IC50 was 72 nM. `CC(C)n1c(=O)c(-c2ccc(NS(=O)(=O)c3ccccc3Cl)nc2)cc2cnc(N[C@H]3CC[C@H](N(C)C)CC3)nc21` [Compound 105, 2-Chloro-N-(5-(2-(((1r,4r)-4-(dimethylamino)cyclohexyl)amino)-8-isopropyl-7-oxo-7,8-dihydropyrido[2,3-d]pyrimidin-6-yl)pyridin-2-yl)benzenesulfonamide]: the concentration for half-maximal inhibition (IC50) turned out to be 0.16 nM. `CC(C)n1c(=O)c(-c2ccc(NS(=O)(=O)c3ccccc3)nc2)cc2cnc(N[C@H]3CC[C@H](N(C)C)CC3)nc21` [Compound 106, N-(5-(2-(((1r,4r)-4-(Dimethylamino)cyclohexyl)amino)-8-isopropyl-7-oxo-7,8-dihydropyrido[2,3-d]pyrimidin-6-yl)pyridin-2-yl)benzenesulfonamide] showed an IC50 of 0.15 nM.

`Cc1ccc(CS(=O)(=O)Nc2c(F)cc(-c3cc4cnc(N[C@@H]5CNC[C@@H](F)C5)nc4n(C(C)C)c3=O)c(F)c2F)c(C#N)c1` [Compound 107, 1-(2-Cyano-4-methylphenyl)-N-(2,3,6-trifluoro-4-(2-(((3S,5S)-5-fluoropiperidin-3-yl)amino)-8-isopropyl-7-oxo-7,8-dihydropyrido[2,3-d]pyrimidin-6-yl)phenyl)methanesulfonamide] showed a half-maximal inhibitory concentration (IC50) of 0.13 nM.

Consider `CC(C)n1c(=O)c(-c2ccc(NS(=O)(=O)CCC(F)(F)F)c(F)c2)cc2cnc(N[C@H]3CCC[C@@H](N)C3)nc21` [Compound 108, N-(4-(2-(((1S,3R)-3-Aminocyclohexyl)amino)-8-isopropyl-7-oxo-7,8-dihydropyrido[2,3-d]pyrimidin-6-yl)-2-fluorophenyl)-3,3,3-trifluoropropane-1-sulfonamide hydrochloride], for which the IC50 stood at 23 nM. `CC(C)n1c(=O)c(-c2ccc(NS(=O)(=O)CC3CCCC3)c(F)c2)cc2cnc(N[C@H]3CC[C@H](N(C)C)CC3)nc21` [Compound 109, 1-Cyclopentyl-N-(4-(2-(((1r,4r)-4-(dimethylamino)cyclohexyl)amino)-8-isopropyl-7-oxo-7,8-dihydropyrido[2,3-d]pyrimidin-6-yl)-2-fluorophenyl)methanesulfonamide]: the 50% inhibitory concentration (IC50) was 0.13 nM. `CC(C)n1c(=O)c(-c2ccc(NS(=O)(=O)Cc3ccc(F)cc3)c(F)c2)cc2cnc(N[C@@H]3CNC[C@@H](F)C3)nc21` [Compound 112, N-(2-Fluoro-4-(2-(((3S,5S)-5-fluoropiperidin-3-yl)amino)-8-isopropyl-7-oxo-7,8-dihydropyrido[2,3-d]pyrimidin-6-yl)phenyl)-1-(4-fluorophenyl)methanesulfonamide hydrochloride]: the IC50 was 0.13 nM. As to `Cc1ccc(CS(=O)(=O)Nc2c(F)cc(-c3cc4cnc(N[C@H]5CC[C@H](N(C)C)CC5)nc4n(C(C)C)c3=O)c(F)c2F)c(C#N)c1` [Compound 113, 1-(2-Cyano-4-methylphenyl)-N-(4-(2-(((1r,4r)-4-(dimethylamino)cyclohexyl)amino)-8-isopropyl-7-oxo-7,8-dihydropyrido[2,3-d]pyrimidin-6-yl)-2,3,6-trifluorophenyl)methanesulfonamide], the IC50 worked out at 0.22 nM. Compound `CC(C)n1c(=O)c(-c2ccc(NS(=O)(=O)CCC(F)(F)F)c(F)c2)cc2cnc(N[C@H]3CCC[C@@H](N(C)C)C3)nc21` [Compound 114, N-(4-(2-(((1S,3R)-3-(Dimethylamino)cyclohexyl)amino)-8-isopropyl-7-oxo-7,8-dihydropyrido[2,3-d]pyrimidin-6-yl)-2-fluorophenyl)-3,3,3-trifluoropropane-1-sulfonamide] returned an IC50 of 180 nM. The same measure for `CC(C)n1c(=O)c(-c2ccc(NS(=O)(=O)CC3CCCCC3)c(F)c2)cc2cnc(N[C@H]3CC[C@H](N(C)C)CC3)nc21` [Compound 115, 1-Cyclohexyl-N-(4-(2-(((1r,4r)-4-(dimethylamino)cyclohexyl)amino)-8-isopropyl-7-oxo-7,8-dihydropyrido[2,3-d]pyrimidin-6-yl)-2-fluorophenyl)methanesulfonamide]: 0.15 nM; for `CC(C)n1c(=O)c(-c2cc(F)c(NS(=O)(=O)Cc3ccc(Cl)cc3)c(F)c2)cc2cnc(N[C@H]3CC[C@H](N(C)C)CC3)nc21` [Compound 116, 1-(4-Chlorophenyl)-N-(4-(2-(((1r,4r)-4-(dimethylamino)cyclohexyl)amino)-8-isopropyl-7-oxo-7,8-dihydropyrido[2,3-d]pyrimidin-6-yl)-2,6-difluorophenyl)methanesulfonamide]: 0.25 nM; for `CC(C)n1c(=O)c(-c2cc(F)c(NS(=O)(=O)Cc3ccccc3)c(F)c2)cc2cnc(N[C@H]3CC[C@H](N(C)C)CC3)nc21` [Compound 117, N-(4-(2-(((1r,4r)-4-(Dimethylamino)cyclohexyl)amino)-8-isopropyl-7-oxo-7,8-dihydropyrido[2,3-d]pyrimidin-6-yl)-2,6-difluorophenyl)-1-phenylmethanesulfonamide]: 0.18 nM. Turning to `Cc1ccc(CS(=O)(=O)Nc2c(F)cc(-c3cc4cnc(N[C@H]5CC[C@H](N(C)C)CC5)nc4n(C(C)C)c3=O)cc2F)cc1` [Compound 120, N-(4-(2-(((1r,4r)-4-(Dimethylamino)cyclohexyl)amino)-8-isopropyl-7-oxo-7,8-dihydropyrido[2,3-d]pyrimidin-6-yl)-2,6-difluorophenyl)-1-(p-tolyl)methanesulfonamide], the IC50 stood at 1.7 nM. As to `COCCN(C)[C@H]1CC[C@H](Nc2ncc3cc(-c4cc(F)c(NS(=O)(=O)Cc5ccc(F)cc5)c(F)c4)c(=O)n(C(C)C)c3n2)CC1` [Compound 122, N-(2,6-Difluoro-4-(8-isopropyl-2-(((1r,4r)-4-((2-methoxyethyl)(methyl)amino)cyclohexyl)amino)-7-oxo-7,8-dihydropyrido[2,3-d]pyrimidin-6-yl)phenyl)-1-(4-fluorophenyl)methanesulfonamide], the concentration for half-maximal inhibition (IC50) was 0.12 nM. Consider `COCCN(C)[C@H]1CC[C@H](Nc2ncc3cc(-c4ccc(NS(=O)(=O)Cc5ccc(F)cc5)c(F)c4)c(=O)n(C(C)C)c3n2)CC1` [Compound 123, N-(2-Fluoro-4-(8-isopropyl-2-(((1r,4r)-4-((2-methoxyethyl)(methyl)amino)cyclohexyl)amino)-7-oxo-7,8-dihydropyrido[2,3-d]pyrimidin-6-yl)phenyl)-1-(4-fluorophenyl)methanesulfonamide], for which the IC50 is 0.05 nM. Turning to `COCCN(C)[C@H]1CC[C@H](Nc2ncc3cc(-c4ccc(NS(=O)(=O)Cc5ccccc5)c(F)c4)c(=O)n(C(C)C)c3n2)CC1` [Compound 124, N-(2-Fluoro-4-(8-isopropyl-2-(((1r,4r)-4-((2-methoxyethyl)(methyl)amino)cyclohexyl)amino)-7-oxo-7,8-dihydropyrido[2,3-d]pyrimidin-6-yl)phenyl)-1-phenylmethanesulfonamide hydrochloride], the IC50 stood at 0.12 nM. For the compound `CC(C)n1c(=O)c(-c2cc(F)c(NS(=O)(=O)Cc3ccc(C(F)F)cc3)c(F)c2)cc2cnc(N[C@H]3CC[C@H](N(C)C)CC3)nc21` [Compound 125, 1-(4-(Difluoromethyl)phenyl)-N-(4-(2-(((1r,4r)-4-(dimethylamino)cyclohexyl)amino)-8-isopropyl-7-oxo-7,8-dihydropyrido[2,3-d]pyrimidin-6-yl)-2,6-difluorophenyl)methanesulfonamide], the IC50 was 0.19 nM.

`COCCN(C)[C@H]1CC[C@H](Nc2ncc3cc(-c4ccc(NS(=O)(=O)CCC(F)(F)F)nc4)c(=O)n(C(C)C)c3n2)CC1` [Compound 126, 3,3,3-Trifluoro-N-(5-(8-isopropyl-2-(((1r,4r)-4-((2-methoxyethyl)(methyl)amino)cyclohexyl)amino)-7-oxo-7,8-dihydropyrido[2,3-d]pyrimidin-6-yl)pyridin-2-yl)propane-1-sulfonamide] registered an IC50 of 0.24 nM.

The compound `CC(C)n1c(=O)c(-c2cc(F)c(NS(=O)(=O)Cc3ccc(F)cc3)cc2F)cc2cnc(N[C@H]3CC[C@H](N(C)C)CC3)nc21` [Compound 127, N-(4-(2-(((1r,4r)-4-(Dimethylamino)cyclohexyl)amino)-8-isopropyl-7-oxo-7,8-dihydropyrido[2,3-d]pyrimidin-6-yl)-2,5-difluorophenyl)-1-(4-fluorophenyl)methanesulfonamide] registered an IC50 of 0.11 nM. In turn, `CC(C)n1c(=O)c(-c2c(F)cc(NS(=O)(=O)Cc3ccc(F)cc3)c(F)c2F)cc2cnc(N[C@H]3CC[C@H](N(C)C)CC3)nc21` [Compound 128, N-(4-(2-(((1r,4r)-4-(Dimethylamino)cyclohexyl)amino)-8-isopropyl-7-oxo-7,8-dihydropyrido[2,3-d]pyrimidin-6-yl)-2,3,5-trifluorophenyl)-1-(4-fluorophenyl)methanesulfonamide] gave an IC50 of 0.15 nM. Compound `CC(C)n1c(=O)c(-c2c(F)cc(NS(=O)(=O)Cc3ccc(F)cc3)cc2F)cc2cnc(N[C@H]3CC[C@H](N(C)C)CC3)nc21` [Compound 129, N-(4-(2-(((1r,4r)-4-(Dimethylamino)cyclohexyl)amino)-8-isopropyl-7-oxo-7,8-dihydropyrido[2,3-d]pyrimidin-6-yl)-3,5-difluorophenyl)-1-(4-fluorophenyl)methanesulfonamide hydrochloride] had an IC50 of 0.08 nM.

For `CC(C)n1c(=O)c(-c2c(F)cc(NS(=O)(=O)Cc3ccc(F)cc3)cc2F)cc2cnc(N[C@@H]3CNC[C@@H](F)C3)nc21` [Compound 130, N-(3,5-Difluoro-4-(2-(((3S,5S)-5-fluoropiperidin-3-yl)amino)-8-isopropyl-7-oxo-7,8-dihydropyrido[2,3-d]pyrimidin-6-yl)phenyl)-1-(4-fluorophenyl)methanesulfonamide hydrochloride], the IC50 was found to be 0.38 nM.
